Here are results for three molecules from patent US20260060928A1, “TALC-FREE ACTIVE INGREDIENT COATING” (Hermes Pharma GmbH, priority 2022, published 2026).

The data set is described as follows: Solubility of the active ingredient in water at room temperature. The data set is classed as physicochemical. The procedure:
Further, unless specified otherwise, any measured provisions such as densities, solubulities, or the like, are understood to be measured at room temperature (i.e., 20±5° C. as defined by the European Pharmacopoeia or by the WHO guidance ‘Guidelines for the Storage of Essential Medicines and Other Health Commodities’ (2003)).

≈ marks a conversion by molar mass, not a printed value. Where a name gives a salt, the structure may show the parent alone.

What is called solubility is the dissolved amount per volume that the medium holds. As to `COc1ccc2[nH]cc(CCNC(C)=O)c2c1` [melatonin], the solubility is 2000 µg/mL (≈ 8.61 mM).

For the molecule `CNC[C@H](O)c1cccc(O)c1` [phenylephrine HCl], the solubility is not below 100000 µg/mL.

Regarding vitamin B12 [Vit. B12], the “solubility in water at room temperature” value worked out at 12500 µg/mL.
